Results as given in publication PMC10980815, “Cell surface patching via CXCR4-targeted nanothreads for cancer metastasis inhibition” (Nature Communications, 2024).
Where “and” joins values, the source holds several entries; their conditions need not be identical. Equal entries are not always repeated. Ends that are not written are not given here.

Key:
[1] = Hydrodynamic size / size distribution by dynamic light scattering; type: physicochemical; details: Malvern Zetasizer Nano ZS90, mean ± SD
Protocol: (§1) The average molecular weight (Mw) and polydispersity (PDI) of the HPMA copolymer conjugates were determined by gel permeation chromatography (GPC) on an AKTA purifier equipment with a Superose 6 10/300 GL analytical column (GE Healthcare, USA) and a differential refraction detector (KNAUER, 2300, Germany). Hydrodynamic sizes and zeta potentials were determined using a Malvern Zetasizer Nano ZS90 equipment (Malvern Instruments Ltd, Malvern, UK). The contents of BS, CM1, and CM2 were determined using a bicinchoninic acid (BCA) protein assay. The PS concentration was determined by ultraviolet-visible (UV-Vis) spectroscopy at its characteristic absorbance peak (660 nm).
To investigate the coiled-coil assembly, varying CM1-to-CM2 ratios (3:1, 1:1, and 1:3) of P-BS-CM1 and P-CM2 were mixed in 10 mM PBS (pH 7.4) at 25 °C for 10 min. The total polymer concentration was kept constant at 10 mg/mL. Circular dichroism spectra, size distribution, and rheological properties of P-BS-CM1, P-CM2, and their mixture were measured. The surface morphology of P-BS-CM1 and the mixture (P-BS-CM1 + P-CM2) was observed using scanning electron microscopy. Additionally, for the FRET assay, CM1-to-CM2 equimolar of P-BS-CM1-Cy5 and P-CM2-Cy3 were mixed in 10 mM PBS (pH 7.4) at 25 °C for 10 min. Fluorescent spectra of P-BS-CM1-Cy5, P-CM2-Cy3, and the mixture (P-BS-CM1-Cy5+P-CM2-Cy3) were recorded at the Cy3 excitation wavelength of 550 nm.

[2] = ζ-potential (Zetasizer); type: physicochemical; details: Malvern Zetasizer Nano ZS90; mean ± SD
Protocol: as §1

[3] = system: 4T1 cells; assay: Photosensitizer cell binding (flow cytometry, confocal); type: cell-based, murine
Protocol: For cell binding investigation, 4T1 cells (4 × 10^5 cells/well) were seeded onto 12-well plates (NEST Biotechnology), and treated with i) P-PS for 1 h, ii) P-BS-PS for 1 h, or iii) P-BS-CM1 for 1 h followed by P-PS-CM2 for another 1 h (50 μg/mL BS equivalence, CM1:CM2 1:1 mol%, 25 μg/mL PS equivalence), respectively. Subsequently, cells were washed three times with PBS and observed using flow cytometry and confocal microscopy.

[4] = system: 4T1 cells; assay: Calreticulin exposure in vitro (flow cytometry); type: cell-based, murine
Protocol: (§2) For the investigation of CXCR4 downstream PI3K signals, cells were fixed, permeabilized, and stained with anti-PI 3 kinase p85 alpha recombinant rabbit monoclonal antibody (1:500 dilution, 4 °C, 1 h) and goat anti-rabbit IgG H&L Alexa Fluor® 647 (1:1000 dilution, 4 °C, 30 min), followed by flow cytometry analysis. For the investigation of ICD hallmarks, cells were stained with anti-calreticulin recombinant rabbit monoclonal antibody (1:500 dilution, 4 °C, 1 h) and goat anti-rabbit IgG H&L Alexa Fluor® 647 (1:1000 dilution, 4 °C, 40 min), followed by flow cytometry analysis. ATP levels in the cell culture supernatant were measured following the protocol of luciferase-based ATP assay kit.

[5] = system: 4T1 cells; assay: Extracellular ATP release in vitro; type: cell-based, murine
Protocol: as §2

[6] = system: orthotopic 4T1 breast tumors; assay: PDT efficacy in vivo: primary tumor growth, survival, lung metastasis; set-up: species or system female BALB/c mice
Protocol: (§3) 4T1 cells (1 × 10^6 cells) were injected into the third mammary fat pad of female BALB/c mice (6–8-week). When tumor volumes reached nearly […] on day 7 after tumor inoculation, mice were randomly divided into 8 groups (n = 8 per group). For four groups without laser irradiation (−), mice were intravenously injected with the following samples: (1) saline on day 7, 14, 21, and 28, (2) P-PS on day 7, 14, 21, and 28, (3) P-BS-PS on day 7, 14, 21, and 28, or (4) P-BS-CM1 on day 7, 14, 21, and 28, followed by P-PS-CM2 on day 8, 15, 22, and 29 (5 mg/kg BS equivalence, CM1:CM2 1:1 mol%, 2.5 mg/kg PS equivalence), respectively. For four groups with laser irradiation (+), mice were treated with the same regimens and irradiated at 650 nm laser (580 mW/cm^2, 5 min) on day 9, 16, 23 and 30. Tumor volumes and mice survivals were recorded every other day. For the investigation of immune response and lung metastasis, 4T1 tumor-bearing female BALB/c mice (6–8-week, tumor volume~100 mm^3) were randomly divided into 8 groups (n = 5 per group) and given three rounds of above treatments. On day 28, lungs and tumors were harvested. lungs were fixed with Bouin’s solution. The pulmonary metastatic nodules were counted and analyzed by hematoxylin-eosin staining. Single-cell suspensions of tumor tissues were stained with anti-CD45-PerCP/Cy5.5 (1:300 dilution) and anti-calreticulin recombinant rabbit monoclonal antibody (1:500 dilution) at 4 °C for 1 h, and then stained with goat anti-rabbit IgG H&L Alexa Fluor® 647 (1:1000 dilution, 4 °C, 45 min), followed by flow cytometry analysis. ATP and HMGB1 concentrations in the supernatant of cell suspension were measured using a luciferase-based ATP assay kit and a mouse HMGB1 ELISA kit, respectively. Single-cell suspensions of tumors were stained with FITC anti-mouse CD3 antibody (1:300 dilution), PerCP/Cyanine5.5 anti-mouse CD4 antibody (1:300 dilution), anti-CD8α-APC (1:300 dilution), and anti-Foxp3-PE (1:300 dilution) for flow cytometry analysis of T cell subtypes (CD8^+ T cells, CD4^+ effector T cells, and Foxp3^+ regulatory T cells), and stained with PE anti-mouse/human CD11b antibody (1:300 dilution) and FITC anti-mouse Ly-6G/Ly-6C (Gr-1) antibody (1:300 dilution) for flow cytometry analysis of MDSCs (CD11b^+Gr1^+). Cytotoxic T cells in tumor tissues were investigated with immunofluorescent staining of IFN-γ and flow cytometry analysis using anti-IFN-γ-PE (1:300 dilution). For CD8-depletion assay, 4T1 tumor-bearing female BALB/c mice (6–8-week, tumor volume~100 mm^3) were randomly divided into 3 groups (n = 8 per group). Mice were intravenously given four doses of P-BS-CM1 on day 7, 14, 21 and 28, combined with P-PS-CM2 on day 8, 15, 22 and 29 (5 mg/kg BS equivalence, CM1:CM2 1:1 mol%, 2.5 mg/kg PS equivalence) in the presence or absence of InvivoMab anti-mouse CD8α (100 μg/mice). Mice were irradiated at 650 nm laser (580 mW/cm^2, 5 min) on day 9, 16, 23 and 30. Tumor volumes and mice survivals were recorded every other day.

[7] = system: orthotopic 4T1 breast tumors; assay: Intratumoral ICD hallmarks (CRT, ATP, HMGB1); type: in vivo, female BALB/c mice; details: individual mice
Protocol: as §3

[8] = system: orthotopic 4T1 breast tumors; assay: IFN-γ+CD8+ T lymphocytes in primary tumors; type: in vivo, female BALB/c mice; details: groups marked (+) (laser irradiation); individual mice, n = 5
Protocol: 4T1 cells (1 × 10^6 cells) were injected into the third mammary fat pad of female BALB/c mice (6–8-week). When tumor volumes reached nearly […] on day 7 after tumor inoculation, mice were randomly divided into 8 groups (n = 8 per group). For four groups without laser irradiation (−), mice were intravenously injected with the following samples: (1) saline on day 7, 14, 21, and 28, (2) P-PS on day 7, 14, 21, and 28, (3) P-BS-PS on day 7, 14, 21, and 28, or (4) P-BS-CM1 on day 7, 14, 21, and 28, followed by P-PS-CM2 on day 8, 15, 22, and 29 (5 mg/kg BS equivalence, CM1:CM2 1:1 mol%, 2.5 mg/kg PS equivalence), respectively. For four groups with laser irradiation (+), mice were treated with the same regimens and irradiated at 650 nm laser (580 mW/cm^2, 5 min) on day 9, 16, 23 and 30. Tumor volumes and mice survivals were recorded every other day. For the investigation of immune response and lung metastasis, 4T1 tumor-bearing female BALB/c mice (6–8-week, tumor volume~100 mm^3) were randomly divided into 8 groups (n = 5 per group) and given three rounds of above treatments. […] The pulmonary metastatic nodules were counted and analyzed by hematoxylin-eosin staining. […] ATP and HMGB1 concentrations in the supernatant of cell suspension were measured using a luciferase-based ATP assay kit and a mouse HMGB1 ELISA kit, respectively. […] Tumor volumes and mice survivals were recorded every other day.

[9] = groups marked (+) (laser irradiation), n = 5
[10] = groups marked (-) (no laser irradiation), n = 5

## P-BS-PS: BS-multivalently-modified polymer-PS conjugate (LGASWHRPDKCCLGYQKRPLPA; not fully specified (residues 11, 12); cysteine pairing not given here; also: chlorin e6 photosensitizer on polymer)
[1]
  Size: 22.4±1.4 nm
[2]
  ζ-potential: -18.24±2.31 mV
[3]; replicate 1
  Photosensitizer cell binding (fluorescence, Fig. 7a): 507603
[3]; replicate 2
  Photosensitizer cell binding (fluorescence, Fig. 7a): 505554
[3]; replicate 3
  Photosensitizer cell binding (fluorescence, Fig. 7a): 480665
[4]; replicate 1
  CRT positive cells (%): 20.53%
[4]; replicate 2
  CRT positive cells (%): 18.21%
[4]; replicate 3
  CRT positive cells (%): 17.1%
[5]; replicate 1
  Extracellular ATP: 52.31 nM
[5]; replicate 2
  Extracellular ATP: 40.65 nM
[5]; replicate 3
  Extracellular ATP: 40.42 nM
[6]; (+) with laser, mouse 1 of 5
  Number of lung metastatic nodules: 11
[6]; (+) with laser, mouse 2 of 5
  Number of lung metastatic nodules: 13
[6]; (+) with laser, mouse 3 of 5
  Number of lung metastatic nodules: 6
[6]; (+) with laser, mouse 4 of 5
  Number of lung metastatic nodules: 9
[6]; (+) with laser, mouse 5 of 5
  Number of lung metastatic nodules: 7
[6]; (-) no laser, mouse 1 of 5
  Number of lung metastatic nodules: 24
[6]; (-) no laser, mouse 2 of 5
  Number of lung metastatic nodules: 27
[6]; (-) no laser, mouse 3 of 5
  Number of lung metastatic nodules: 22
[6]; (-) no laser, mouse 4 of 5
  Number of lung metastatic nodules: 23
[6]; (-) no laser, mouse 5 of 5
  Number of lung metastatic nodules: 21
[7]; [9]
  ATP per tumor weight: 345.1 µmol/g and 303.2 µmol/g and 231.5 µmol/g and 287.7 µmol/g and 298.1 µmol/g
  CRT expression in tumor (MFI): 34335.1 MFI and 38552.2 MFI and 29253.6 MFI and 35944.5 MFI and 36607.6 MFI
  HMGB1 per tumor weight: 80.13 ng/g and 70.54 ng/g and 88.61 ng/g and 92.56 ng/g and 89.1 ng/g
[7]; [10]
  ATP per tumor weight: 191.5 µmol/g and 151.37 µmol/g and 120.13 µmol/g and 106.4 µmol/g and 205.73 µmol/g
  HMGB1 per tumor weight: 19.76 ng/g and 15.34 ng/g and 14.57 ng/g and 18.95 ng/g and 19.22 ng/g
[7]; groups marked (-) (no laser irradiation), n = 5, one line each
  CRT expression in tumor (MFI): 27343 MFI and 22321 MFI and 19321 MFI and 23431 MFI and 20197 MFI
[8]
  IFN-γ+ cells (%) in tumor-infiltrating CD8+ cells: 13.27% and 14.75% and 15.74% and 11.82% and 15.65%
